What was measured:
[1] = target: T1, HIS-TGFβR1 T204D (Homo sapiens, UniProt P36897, T204D); assay: HTRF probe-displacement assay, HIS-TGFβR1 T204D; assay type: binding; conditions: read-out: TGFβR1 (μM) IC50
T1 sequence (P36897 34-503 T204D): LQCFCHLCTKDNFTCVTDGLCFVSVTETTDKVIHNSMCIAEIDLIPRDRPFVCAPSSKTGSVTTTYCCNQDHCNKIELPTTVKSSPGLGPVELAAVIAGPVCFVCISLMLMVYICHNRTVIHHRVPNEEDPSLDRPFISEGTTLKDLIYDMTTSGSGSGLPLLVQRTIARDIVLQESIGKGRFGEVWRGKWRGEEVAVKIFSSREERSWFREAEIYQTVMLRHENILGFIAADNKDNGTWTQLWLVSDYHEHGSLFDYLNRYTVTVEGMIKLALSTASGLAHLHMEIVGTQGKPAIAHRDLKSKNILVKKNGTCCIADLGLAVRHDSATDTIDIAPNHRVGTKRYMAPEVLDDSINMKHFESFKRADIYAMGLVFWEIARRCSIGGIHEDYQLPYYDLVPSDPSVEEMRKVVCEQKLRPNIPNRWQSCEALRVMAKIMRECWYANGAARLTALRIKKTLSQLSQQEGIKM

[2] = target: HIS-TGFβR2 WT (Homo sapiens, UniProt P37173); assay: HTRF probe-displacement assay, HIS-TGFβR2 WT; assay type: binding
Sequence of HIS-TGFβR2 WT (P37173 23-567): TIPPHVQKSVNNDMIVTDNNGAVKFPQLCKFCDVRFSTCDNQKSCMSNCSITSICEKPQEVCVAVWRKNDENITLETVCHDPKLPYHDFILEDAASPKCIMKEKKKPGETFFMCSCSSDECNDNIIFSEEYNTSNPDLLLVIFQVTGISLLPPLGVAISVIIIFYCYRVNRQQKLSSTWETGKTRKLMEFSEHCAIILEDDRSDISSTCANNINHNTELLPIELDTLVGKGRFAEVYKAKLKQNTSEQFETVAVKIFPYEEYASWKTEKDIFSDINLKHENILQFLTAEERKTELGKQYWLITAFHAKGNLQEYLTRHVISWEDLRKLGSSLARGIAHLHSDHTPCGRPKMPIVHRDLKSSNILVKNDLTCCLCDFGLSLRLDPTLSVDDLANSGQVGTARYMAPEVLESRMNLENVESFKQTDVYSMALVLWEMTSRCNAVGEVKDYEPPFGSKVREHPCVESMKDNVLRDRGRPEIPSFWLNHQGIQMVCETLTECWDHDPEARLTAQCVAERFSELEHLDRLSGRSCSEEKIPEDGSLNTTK

SMILES	IC50 [1] [µM]	IC50 [2] [µM]
COc1cnc2c(-c3csc(C)n3)c(-c3ccnc(NC(C)=O)c3)[nH]c2c1 [Example 210, N-(4-(6-Methoxy-3-(2-methylthiazol-4-yl)-1H-pyrrolo[3,2-b]pyridin-2-yl)pyridin-2-yl)acetamide]	0.0025	0.815
CN1CCN(CC(=O)Nc2cc(-c3[nH]c4cc(Cl)cnc4c3-c3ccc(F)cn3)ccn2)CC1 [Example 88, N-{4-[6-Chloro-3-(5-fluoropyridin-2-yl)-1H-pyrrolo[3,2-b]pyridin-2-yl]pyridin-2-yl}-2-(4-methylpiperazin-1-yl)acetamide]	0.001	9.92
CC(=O)Nc1cc(-c2[nH]c3c(CF)ccnc3c2-c2cccc(C(F)F)n2)ccn1 [Example 150, N-(4-{3-[6-(Difluoromethyl)pyridin-2-yl]-7-(fluoromethyl)-1H-pyrrolo[3,2-b]pyridin-2-yl}-pyridin-2-yl)acetamide]	0.001	6.08
CC(=O)Nc1cc(-c2[nH]c3c(CO)ccnc3c2-c2cccc(Cl)n2)ccn1 [Example 276, N-(4-(3-(6-Chloropyridin-2-yl)-7-(hydroxymethyl)-1H-pyrrolo[3,2-b]pyridin-2-yl)pyridin-2-yl)acetamide]	0.001	0.503
CC(=O)Nc1cc(-c2[nH]c3cccnc3c2-c2nccc(Cl)n2)ccn1 [Example 197, N-(4-(3-(4-Chloropyrimidin-2-yl)-1H-pyrrolo[3,2-b]pyridin-2-yl)pyridin-2-yl)acetamide]	3.54	> 15
CC(=O)Nc1cc(-c2[nH]c3cc(C)cnc3c2-c2nc(C)cs2)ccn1 [Example 223, N-(4-(6-Methyl-3-(4-methylthiazol-2-yl)-1H-pyrrolo[3,2-b]pyridin-2-yl)pyridin-2-yl)acetamide]	0.0008	0.043
COc1ccc(-c2c(-c3ccnc(NC(=O)CN4CCN(C)CC4)c3)[nH]c3cc(Cl)cnc23)nc1 [Example 249, N-(4-(6-Chloro-3-(5-methoxypyridin-2-yl)-1H-pyrrolo[3,2-b]pyridin-2-yl)pyridin-2-yl)-2-(4-methylpiperazin-1-yl)acetamide]	0.007	> 15
O=C(CO)Nc1cc(-c2[nH]c3cc(Cl)cnc3c2-c2ccc(F)cn2)ccn1 [Example 72, N-{4-[6-Chloro-3-(5-fluoropyridin-2-yl)-1H-pyrrolo[3,2-b]pyridin-2-yl]pyridin-2-yl}-2-hydroxyacetamide]	0.008	1.55
COc1ccc(-c2c(-c3ccnc(NC(=O)CN4CCOCC4)c3)[nH]c3cc(Cl)cnc23)cn1 [Example 290, N-(4-(6-Chloro-3-(6-methoxypyridin-3-yl)-1H-pyrrolo[3,2-b]pyridin-2-yl)pyridin-2-yl)-2-morpholinoacetamide]	0.002	1.12
CC(=O)Nc1cc(-c2[nH]c3c(C4CCOCC4)ccnc3c2-c2cccc(C(F)F)n2)ccn1 [Example 135, N-(4-{3-[6-(Difluoromethyl)pyridin-2-yl]-7-(oxan-4-yl)-1H-pyrrolo[3,2-b]pyridin-2-yl}pyridin-2-yl)acetamide]	0.003	> 15
COc1ccc(-c2c(-c3ccnc(NC(C)=O)c3)[nH]c3cc(NC(C)=O)cnc23)nc1 [Example 157, N-(4-(6-Acetamido-3-(5-methoxypyridin-2-yl)-1H-pyrrolo[3,2-b]pyridin-2-yl)pyridin-2-yl)acetamide]	0.0013	> 15
CC(=O)Nc1cc(-c2[nH]c3c(C(C)O)ccnc3c2-c2ccc(F)nc2)ccn1 (stereo not drawn) [Example 261, N-(4-(3-(6-Fluoropyridin-3-yl)-7-(1-hydroxyethyl)-1H-pyrrolo[3,2-b]pyridin-2-yl)pyridin-2-yl)acetamide]	0.005	0.011
CC(=O)Nc1cc(-c2[nH]c3cc(Cl)cnc3c2-c2cccc(OC(C)C)n2)ccn1 [Example 255, N-(4-(6-Chloro-3-(6-isopropoxypyridin-2-yl)-1H-pyrrolo[3,2-b]pyridin-2-yl)pyridin-2-yl)acetamide]	0.433	> 15
COc1ccc(-c2c(-c3ccnc(NC(C)=O)c3)[nH]c3cc(N4CCOCC4)cnc23)nc1 [Example 164, N-(4-(3-(5-Methoxypyridin-2-yl)-6-morpholino-1H-pyrrolo[3,2-b]pyridin-2-yl)pyridin-2-yl)acetamide]	0.0053	> 15
COc1ccc(-c2c(-c3ccnc(NC(=O)CN4CCN(CCO)CC4)c3)[nH]c3cc(Cl)cnc23)nc1 [Example 252, N-(4-(6-Chloro-3-(5-methoxypyridin-2-yl)-1H-pyrrolo[3,2-b]pyridin-2-yl)pyridin-2-yl)-2-(4-(2-hydroxyethyl)piperazin-1-yl)acetamide]	0.001	> 15
COc1cnc2c(-c3ccc(F)c(C)n3)c(-c3ccnc(NC(C)=O)c3)[nH]c2c1 [Example 51, N-{4-[3-(5-Fluoro-6-methylpyridin-2-yl)-6-methoxy-1H-pyrrolo[3,2-b]pyridin-2-yl]pyridin-2-yl}acetamide]	0.002	0.61
COc1ccc(-c2c(-c3ccnc(NC(C)=O)c3)[nH]c3cc(C(O)C(F)(F)F)cnc23)nc1 (stereo not drawn) [Example 297, N-(4-(3-(5-Methoxypyridin-2-yl)-6-(2,2,2-trifluoro-1-hydroxyethyl)-1H-pyrrolo[3,2-b]pyridin-2-yl)pyridin-2-yl)acetamide]	0.004	4.33
CC(=O)Nc1cc(-c2[nH]c3c(C)ccnc3c2-c2cccc(C(F)F)n2)ccn1 [Example 216, N-(4-(3-(6-(Difluoromethyl)pyridin-2-yl)-7-methyl-1H-pyrrolo[3,2-b]pyridin-2-yl)pyridin-2-yl)acetamide]	0.0013	3.77
CC(=O)Nc1cc(-c2[nH]c3cc(Cl)cnc3c2-c2nc(C)cs2)ccn1 [Example 176, N-(4-(6-Chloro-3-(4-methylthiazol-2-yl)-1H-pyrrolo[3,2-b]pyridin-2-yl)pyridin-2-yl)acetamide]	0.0005	0.037
COc1ccc(-c2c(-c3ccnc(NC(C)=O)c3)[nH]c3cc(N4CCC(CO)CC4)cnc23)nc1 [Example 161, N-(4-(6-(4-(Hydroxymethyl)piperidin-l-yl)-3-(5-methoxypyridin-2-yl)-1H-pyrrolo[3,2-b]pyridin-2-yl)pyridin-2-yl)acetamide]	0.0126	> 15
CC(=O)Nc1cc(-c2[nH]c3cc(Cl)cnc3c2-c2ccc(OC(C)C)cn2)ccn1 [Example 254, N-(4-(6-Chloro-3-(5-isopropoxypyridin-2-yl)-1H-pyrrolo[3,2-b]pyridin-2-yl)pyridin-2-yl)acetamide]	0.065	> 15
COc1ccc(-c2c(-c3ccnc(NC(C)=O)c3)[nH]c3cc(C)cnc23)cn1 [Example 173, N-(4-(3-(6-Methoxypyridin-3-yl)-6-methyl-1H-pyrrolo[3,2-b]pyridin-2-yl)pyridin-2-yl)acetamide]	0.15	1.35
[2H]C([2H])([2H])C(O)c1ccnc2c(-c3cccc(C(F)F)n3)c(-c3ccnc(NC(C)=O)c3)[nH]c12 (stereo not drawn) [Example 145, N-(4-{3-[6-(Difluoromethyl)pyridin-2-yl]-7-[1-hydroxy(2,2,2-2H)ethyl]-1H-pyrrolo[3,2-b]pyridin-2-yl}pyridin-2-yl)acetamide]	0.002	2.94
CC(=O)Nc1cc(-c2[nH]c3c([C@@H](C)O)ccnc3c2-c2cccc(C(F)F)n2)ccn1 (single isomer, unassigned) [Example 146]	0.001	1.78
COc1ccc(-c2c(-c3ccnc(NC(C)=O)c3)[nH]c3c(CN)ccnc23)cn1 [Example 81, N-(4-(7-(Aminomethyl)-3-(6-methoxypyridin-3-yl)-1H-pyrrolo[3,2-b]pyridin-2-yl)pyridin-2-yl)acetamide]	0.014	0.26
CC(=O)Nc1cc(-c2[nH]c3c(C(F)F)ccnc3c2-c2nc(C)cs2)ccn1 [Example 222, N-(4-(7-(Difluoromethyl)-3-(4-methylthiazol-2-yl)-1H-pyrrolo[3,2-b]pyridin-2-yl)pyridin-2-yl)acetamide]	0.0015	0.129
CC(=O)Nc1cc(-c2[nH]c3c(C(C)C)ccnc3c2-c2cccc(C(F)F)n2)ccn1 [Example 133, N-(4-{3-[6-(Difluoromethyl)pyridin-2-yl]-7-(propan-2-yl)-1H-pyrrolo[3,2-b]pyridin-2-yl}pyridin-2-yl)acetamide]	0.001	> 15
CC(=O)Nc1cc(-c2[nH]c3cc(F)cnc3c2-c2nc(C)cs2)ccn1 [Example 225, N-(4-(6-Fluoro-3-(4-methylthiazol-2-yl)-1H-pyrrolo[3,2-b]pyridin-2-yl)pyridin-2-yl)acetamide]	0.0007	0.057
CC(=O)Nc1cc(-c2[nH]c3cc(Cl)cnc3c2-c2cccc(NCCO)n2)ccn1 [Example 68, N-[4-(6-Chloro-3-{6-[(2-hydroxyethyl)amino]pyridin-2-yl}-1H-pyrrolo[3,2-b]pyridin-2-yl)pyridin-2-yl]acetamide]	0.96	> 15
COc1ccc(-c2c(-c3ccnc(N)c3)[nH]c3cccnc23)cn1 [Example 52, 4-[3-(6-Methoxypyridin-3-yl)-1H-pyrrolo[3,2-b]pyridin-2-yl]pyridin-2-amine]	0.041	0.45

Source: US9708316B2 (BRISTOL-MYERS SQUIBB COMPANY, priority 2014, dated 2017)
